Converted amounts (≈) assume the structure as drawn. Where a name gives a salt, the structure may show the parent alone. Read-outs that look alike come from different tables or passages of the source.
Tests used:
[1] = system: Staphylococcus aureus (S. aureus FDA209P); assay: Sensitivity Test 1: antibacterial activity (MIC) by micro-dilution method; format: cell-based
Description: (§1) Test compounds were initially dissolved in dimethylsulfoxide. Antibacterial activities (MICs) of the same compounds were determined by the micro-dilution method as recommended by the Japanese Society of Chemotherapy.
(§2) Staphylococcus aureus (S. aureus FDA209P) was used as the test organism. The bacterial cells were grown overnight at 35° C. on Mueller-Hinton agar (MHA) plates. The bacterial cells were then suspended in sterile saline and adjusted to the turbidity of a 0.5 McFarland standard. The inoculum was prepared by 10-fold dilution of this suspension. Approximately 0.005 mL aliquots of the inoculum prepared above were subsequently inoculated into Cation-adjusted Mueller-Hinton broth (CAMHB, 100 μL/well) including the test compounds for overnight incubation at 35° C.

Vero cells = assay: Cytotoxicity Test (XTT) on Vero cells; format: cell-based; settings: 51.2 μg/mL of test compound, 3 days at 37° C., XTT absorbance ratio of treated to untreated well
Description: Test compounds were initially dissolved in dimethylsulfoxide. […]. After incubation, absorbance was read at 450 nm and 655 nm in a spectrophotometric microplate reader. The values were expressed as the ratio between the value for the well treated with 51.2 μg/mL of each test compound and the value for the well untreated with the test compound (T/C).

S. aureus Smith = assay: Infection Test: mice infected intraperitoneally with S. aureus Smith; format: in vivo; settings: ICR mice, 5 per group; S. aureus Smith i.p.; 10 mg/kg subcutaneously once at 1 hour after infection; survivors recorded 3 days after infection
Description: S. aureus Smith which was grown overnight at 37° C. on Mueller-Hinton agar (MHA) plates were suspended to give a final concentration of 10^9 CFU/mL. The inoculum was prepared by diluting this suspension 10-fold in 1/15 mol/L phosphate buffer (pH 7) containing 5.6% mucin. ICR mice (4 to 4.5 weeks of age, male, 5 mice per group) were intraperitoneally administered with the inoculum (approximately 2×10^7 CFU per mice) to induce infection.
After dissolving the test compounds in 0.1 mol/L hydrochloric acid, 20% 2-hydroxypropyl-β-cyclodextrin (HP-β-CD) or a mixture of 20% HP-β-CD and 0.1 mol/L hydrochloric acid at a proportion of 1:1 was added to give a final concentration of 1 mg/mL. Each of the test compound solutions (10 mg/kg) was subcutaneously administered once to a group of mice at 1 hour after infection. The control group was administered with 10% HP-β-CD. The mice were observed daily and the number of surviving mice in each group was recorded 3 days after infection.

[2] = system: Methicillin-resistant Staphylococcus aureus (S. aureus F-3095); assay: Sensitivity Test 2: antibacterial activity (MIC) by micro-dilution method; format: cell-based
Description: as §1, §2
Methicillin-resistant Staphylococcus aureus (S. aureus F-3095) was used as the test organism. Antibacterial activities (MICs) were determined in the same manner as in Test Example 1.

[3] = S. aureus FDA209P, CAMHB, overnight incubation at 35° C., lowest concentration with virtually no growth, read-out: MIC
[4] = Methicillin-resistant S. aureus F-3095, same manner as in Test Example 1, read-out: MIC

SMILES: CNC(=O)c1cc(=O)n(CCN2CCC(NCc3cc(-c4cccs4)on3)CC2)c2cc(OC)ccc12 [Example 341, 7-methoxy-N-methyl-2-oxo-1-(2-(4-((5-(thiophen-2-yl)isoxazol-3-yl)methylamino)piperidin-1-yl)ethyl)-1,2-dihydroquinoline-4-carboxamide hydrochloride]
- MIC ([1]; FDA209P): 0.0313 µg/mL
- T/C (Vero cells): >50%
- Number of surviving mice (S. aureus Smith): 5
- MIC [2]: 0.0625 µg/mL

SMILES: Nc1cccc2c1ccc(=O)n2CCN1CCC(NCc2ccc3c(c2)OCCO3)CC1 [Example 263, 1-(2-(4-((2,3-dihydro-1,4-benzodioxin-6-ylmethyl)amino)piperidin-1-yl)ethyl)-5-aminoquinolin-2(1H)-one hydrochloride]
- MIC ([1]; FDA209P): 0.125 µg/mL
- T/C (Vero cells): >50%
- Number of surviving mice (S. aureus Smith): 5
- MIC [2]: 0.25 µg/mL

SMILES: Cc1ccc(CNC2CCN(CCn3c(=O)cnc4ccc(F)cc43)CC2)cc1F [Example 367, 1-(2-(4-((3-fluoro-4-methylbenzyl)amino)piperidin-1-yl)ethyl)-7-fluoroquinoxalin-2(1H)-one hydrochloride]
- MIC ([1]; FDA209P): 0.0156 µg/mL
- T/C (Vero cells): >50%
- Number of surviving mice (S. aureus Smith): 5
- MIC [2]: 0.0156 µg/mL

SMILES: CNC(=O)c1cc(=O)n(CCN2CCC(NCc3ccc4c(c3)OCCO4)CC2)c2cc(OC)ccc12 [Example 25, 1-(2-(4-((2,3-dihydro-1,4-benzodioxin-6-ylmethyl)amino)piperidin-1-yl)ethyl)-7-methoxy-N-methyl-2-oxo-1,2-dihydroquinoline-4-carboxamide]
- MIC [1, 3]: 0.0625 µg/mL (≈ 0.123 µM)
- T/C (Vero cells): >50%
- Number of surviving mice (S. aureus Smith): 5
- MIC [2, 4]: 0.125 µg/mL (≈ 0.247 µM)

SMILES: COc1ccc2ncc(=O)n(CCN3CCC(NCc4ccc5c(c4)NC(=O)CO5)CC3)c2c1 [Example 90, 6-(((1-(2-(7-methoxy-2-oxoquinoxaline-1-(2H)-yl)ethyl)piperidin-4-yl)amino)methyl)-2H-1,4-benzooxazine-3(4H)-one]
- MIC [1, 3]: 0.0313 µg/mL (≈ 0.0675 µM)
- T/C (Vero cells): >50%
- Number of surviving mice (S. aureus Smith): 5
- MIC [2, 4]: 0.0625 µg/mL (≈ 0.135 µM)

SMILES: O=c1cnc2ccc(F)cc2n1CCN1CCC(NCc2cc3c(cn2)OCCO3)CC1 [Example 352, 1-(2-(4-((2,3-dihydro-1,4-dioxino[2,3-c]pyridin-7-yl)methylamino)piperidin-1-yl)ethyl)-7-fluoroquinoxalin-2(1H)-one hydrochloride]
- MIC ([1]; FDA209P): 0.0156 µg/mL
- T/C (Vero cells): >50%
- Number of surviving mice (S. aureus Smith): 5
- MIC [2]: 0.0313 µg/mL

SMILES: CNC(=O)c1cc(=O)n(CCN2CCC(NCc3ccc(C)c(F)c3)CC2)c2cc(OC)ccc12 [Example 340, 1-(2-(4-(3-fluoro-4-methylbenzylamino)piperidin-1-yl)ethyl)-7-methoxy-N-methyl-2-oxo-1,2-dihydroquinoline-4-carboxamide hydrochloride]
- MIC ([1]; FDA209P): 0.0313 µg/mL
- T/C (Vero cells): >50%
- Number of surviving mice (S. aureus Smith): 5
- MIC [2]: 0.0625 µg/mL

SMILES: O=C1CSc2ccc(CNC3CCN(CCn4c(=O)cnc5ccc(F)cc54)CC3)nc2N1 [Example 369, 7-fluoro-1-(2-(4-((3-oxo-3,4-dihydro-2H-pyrido[3,2-b][1,4]thiazin-6-yl)methylamino)piperidin-1-yl)ethyl)quinoxalin-2(1H)-one hydrochloride]
- MIC ([1]; FDA209P): 0.0313 µg/mL
- T/C (Vero cells): >50%
- Number of surviving mice (S. aureus Smith): 5
- MIC [2]: 0.0313 µg/mL
